The values that follow are results of earlier work, collected in patent US12390417B2, “Praziquantel formulations” (Villya LLC, priority 2020, dated 2025).

Structures are written as SMILES. In brackets after ≈: the same amount, converted by molar mass.

The conditions of the data set: in water; according to the Merck Index.

Turning to `O=C(C1CCCCC1)N1CC(=O)N2CCc3ccccc3C2C1` (racemic) [Praziquantel, (RS)-2-(Cyclohexylcarbonyl)-1,2,3,6,7,11b-hexahydro-4H-pyrazino[2,1-a]isoquinolin-4-one], the solubility (commonly how much of the substance goes into solution per volume) is 400 µg/mL (≈ 1280 µM).
